The values that follow come from patent publication US10857232B2, “Surfactant composition” (Enza Biotech AB, priority 2013, dated 2020).

For data set [1] the following is noted: literature values [11-13]; cited from earlier work.
In another data set the target is insulin (Homo sapiens, UniProt P01308). Nature of the data set: Inhibition of peptide and protein aggregation (insulin precipitation). The data set is classed as physicochemical. The following applies: insulin 0.4 mg/ml, surfactant 1.4 mg/ml, pH 6.8 or 7.4, 25 and 40° C., 2-12 weeks. An excerpt:
Inhibition of peptide and protein aggregation is crucial for the physical stability and safety, particularly for pharmaceutics for injection (injectabilia). Therefore, surfactants are normally applied as inhibitors of peptide and protein aggregation in such formulations. The ability, of a C16G8/14 mixture to inhibit peptide and protein aggregation in solution was investigated using insulin as model peptide.

Chain of insulin (P01308 25-54 limits assumed, species assumed): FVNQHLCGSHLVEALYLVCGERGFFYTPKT
Chain of insulin (P01308 90-110 limits assumed, species assumed): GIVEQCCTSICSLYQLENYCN

Consider `CCCCCCCCCCCCCCO[C@@H]1O[C@H](CO)[C@@H](O[C@@H]2O[C@@H](CO)[C@H](O)[C@@H](O)[C@@H]2O)[C@H](O)[C@H]1O` (stereo in doubt) [C14G2, tetradecylmaltoside], for which, in data set [1], the Krafft point was 32 °C. Also, on insulin, the “Inhibition of insulin precipitation (visual inspection)” value is listed as “unable to inhibit precipitation, even under non-accelerated conditions”.
As to `CCCCCCCCCCCCO[C@@H]1O[C@H](CO)[C@@H](O)[C@H](O)[C@H]1O` [C12G1], in data set [1], the Krafft point is 38 °C.
